Patent publication US20150289512A1, “METHOD FOR PROMOTING PLANT GROWTH” (SUMITOMO CHEMICAL COMPANY, LIMITED, priority 2012, published 2015)

How the values were obtained:
Assay type in all cases: in vivo
Nicotiana benthamiana [1] = assay: Test Example 5: growth promotion under low-temperature stress by hydroponics of Nicotiana benthamiana, 1 ppm; details: 1 ppm in medium, low-temperature stress 7 days at 1.5±1.0° C., green leaf area 3 days later, equation (1)
Experimental: (§1) Test for Evaluating Growth Promotion Under Low-Temperature Stress by Hydroponics of Nicotiana benthamiana
A DMSO solution, which contained one of the compounds 2, 4, 5, 6, 11, 12, 17, 20, 21, 28, 30, 34, 36, 37, 51, 52, 53, 55, 56, 58, 59, 60, 64, 65, 66, 68, 69, 70, 74, 77, 82, 83, 84, 86 and 87 of the present invention at a concentration of 1,000 ppm, was prepared. The DMSO solution of the compound of the present invention was added at a volume ratio of 1/1,000 to the Murashige•Scoog medium of a ½-fold concentration (a medium containing 2.3 g of mixed salts for the Murashige•Scoog medium (manufactured by Wako Pure Chemical Industries, Ltd.), 200 mg of Myo-inositol (manufactured by Sigma-Aldrich Co. LLC.), 2 mg of nicotinic acid (manufactured by Wako Pure Chemical Industries, Ltd.), 2 mg of pyridoxine hydrochloride (manufactured by Wako Pure Chemical Industries, Ltd.), 20 mg of thiamine hydrochloride (manufactured by Wako Pure Chemical Industries, Ltd.), 20 g of sucrose (manufactured by Wako Pure Chemical Industries, Ltd.), and 1 g of MES (manufactured by DOJINDO LABORATORIES) per 1 L of water and having pH adjusted to 5.8), thereby preparing a medium containing the compound of the present invention at a concentration of 1 ppm.
(§2) Seeds of Nicotiana benthamiana were seeded in the 5 μL of the medium and cultured overnight at 22° C. Thereafter, 45 μL of the medium containing the compound of the present invention at a concentration of 1 ppm was added thereto, and the seeds are cultured for 7 days at 22° C., an illuminance of 4,000 lux, and a day length of 16 hours, and the nursery plants raised from the Nicotiana benthamiana were treated with the compound. Moreover, instead of the above medium, a test plot, which was obtained by performing the same treatment by using a medium prepared by adding DMSO to the Murashige•Scoog medium of ½-fold concentration at a volume ratio of 1/1,000, was used as a control plot not treated with the compound.
(§3) The nursery plants of the Nicotiana benthamiana treated with the compound were subjected to low-temperature treatment by being cultivated for 7 days at 1.5±1.0° C., an illuminance of 2,000 lux, and a day length of 16 hours.
The nursery plants of the Nicotiana benthamiana having undergone the low-temperature stress treatment were cultured for 3 days at 22° C., an illuminance of 4,000 lux, and a day length of 16 hours. Thereafter, the area of green leaf was quantified by Scanalyzer HTS (manufactured by LemnaTec GmbH). Moreover, the value of the control plot not treated with the compound that had not yet been subjected to the low-temperature stress treatment was measured in the same manner. A value of a relative leaf area was calculated based on the following equation (1), and if the value of a relative leaf area was 5 or greater, the compound was evaluated to have a mitigating effect. As a result of the evaluation, it was confirmed that when the plant was treated with one of the compounds 2, 4, 5, 6, 11, 12, 17, 20, 21, 28, 30, 34, 36, 37, 51, 52, 53, 55, 56, 58, 59, 60, 64, 65, 66, 68, 69, 70, 74, 77, 82, 83, 84, 86 and 87 of the present invention at 1 ppm, the value of a relative leaf area was 5 or greater, compared to the area of green leaf of the control plot not treated with compound. Accordingly, it was confirmed that the treatment using the compound of the present invention brings about a growth promotion effect.
(§4) Relative leaf area=100*(a green area of a plot treated with the compound of the present invention−a green area of a control plot not treated with the compound of the present invention)/(a green area of a control plot not treated with the compound of the present invention that has not yet been subjected to low-temperature stress treatment−a green area of a control plot not treated with the compound of the present invention) Equation (1): […]

[2] = system: Rice (variety: Nipponbare); assay: Test Example 1: promotion of root growth by hydroponics of rice, 10 ppm; details: Oryza sativa, hydroponic solution containing the test compound at 10 ppm, average of 4 or 5 individuals, read-out: Relative value of length of seminal root (%-untreated control plot)
Experimental: (§5) Test for Evaluating Promotion of Root Growth by Hydroponics of Rice
(§6) Rice (variety: Nipponbare)
Rice seeds were soaked in a 1% aqueous sodium hypochlorite solution for 10 minutes, then soaked in a 70% ethanol solution for surface sterilization, and then washed with distilled water. The sterilized seeds were soaked in a hydroponic solution containing the test compound described above at 10 ppm and incubated in a dark place for 3 days at 28° C. to perform treatment for hastening germination.
(§7) Thereafter, 30 ml of hydroponic solution containing the test compound at 10 ppm was dispensed in a plastic tube (diameter of 20 mm×height of 113 mm) of which the side was covered with cardboard to block light. A float prepared using a styrene board and vinyl mesh was floated, and the rice seeds that had undergone the treatment for hastening germination were placed on the float on the surface of the hydroponic solution. The seeds were cultivated for 3 days at 26° C., an illuminance of 4,000 lux of the top surface of the tube, a humidity of 50%, and a day length of 16 hours.
The nursery plants of rice obtained after culturing were measured in terms of the length of seminal root by using WinRHIZO system (manufactured by Regent Instruments Inc). For each test plot, an average of the measured values of the seminal root of 4 or 5 individuals was determined.

Nicotiana benthamiana [3] = assay: Test Example 4: growth promotion under low-temperature stress by hydroponics of Nicotiana benthamiana, 10 ppm; details: 10 ppm in medium, low-temperature stress 7 days at 1.5±1.0° C., green leaf area 3 days later, equation (1)
Experimental: as §1
A DMSO solution, which contained one of the compounds 1, 8, 9, 13, 18, 19, 22, 23, 29, 32, 33, 34, 39, 40, 41, 43, 44, 51, 53, 54, 55, 56, 58, 60, 62, 63, 64, 65, 67, 69, 71, 73, 74, 75, 77, 79, 82, 83 and 86 of the present invention at a concentration of 10,000 ppm, was prepared. The DMSO solution of the compound of the present invention was added at a volume ratio of 1/1,000 to the Murashige•Scoog medium of a ½-fold concentration (a medium containing 2.3 g of mixed salts for the Murashige•Scoog medium (manufactured by Wako Pure Chemical Industries, Ltd.), 200 mg of Myo-inositol (manufactured by Sigma-Aldrich Co. LLC.), 2 mg of nicotinic acid (manufactured by Wako Pure Chemical Industries, Ltd.), 2 mg of pyridoxine hydrochloride (manufactured by Wako Pure Chemical Industries, Ltd.), 20 mg of thiamine hydrochloride (manufactured by Wako Pure Chemical Industries, Ltd.), 20 g of sucrose (manufactured by Wako Pure Chemical Industries, Ltd.), and 1 g of MES (manufactured by DOJINDO LABORATORIES) per 1 L of water and having pH adjusted to 5.8), thereby preparing a medium containing the compound of the present invention at a concentration of 10 ppm.
as §2, with “concentration of 10 ppm was” for “concentration of 1 ppm was”, “seeds are cultivated for 7” for “seeds are cultured for 7”
as §3
The nursery plants of the Nicotiana benthamiana having undergone the low-temperature stress treatment were cultivated for 3 days at 22° C., an illuminance of 4,000 lux, and a day length of 16 hours. Thereafter, the area of green leaf was quantified by Scanalyzer HTS (manufactured by LemnaTec GmbH). Moreover, the value of the control plot not treated with the compound that had not yet been subjected to the low-temperature stress treatment was measured in the same manner. A value of a relative leaf area was calculated based on the following equation (1), and if the value of a relative leaf area was 5 or greater, the compound was evaluated to have a mitigating effect. As a result of the evaluation, it was confirmed that when the plant was treated with one of the compounds 1, 8, 9, 13, 18, 19, 22, 23, 29, 32, 33, 34, 39, 40, 41, 43, 44, 51, 53, 54, 55, 56, 58, 60, 62, 63, 64, 65, 67, 69, 71, 73, 74, 75, 77, 79, 82, 83 and 86 of the present invention at 10 ppm, the value of a relative leaf area was 5 or greater, compared to the area of green leaf of the control plot not treated with compound. Accordingly, it was confirmed that the treatment using the compound of the present invention brings about a growth promotion effect.
as §4

[4] = system: Rice (variety: Nipponbare); assay: Test Example 2: promotion of root growth by hydroponics of rice, 1 ppm; details: Oryza sativa, hydroponic solution containing the test compound at 1 ppm, average of 4 or 5 individuals, read-out: Relative value of length of seminal root (%-untreated control plot)
Experimental: as §5, §6
A DMSO solution, which contained one of the compounds 1, 3, 11, 12, 14, 15, 17, 21, 28, 30, 33, 34, 35, 36, 37, 38, 40, 41, 43, 44, 45, 46, 47, 49, 50, 51, 52, 53, 54, 55, 56, 61, 62, 63, 65, 67, 68, 69, 70, 73, 74, 75, 76, 77, 80, 82, 83, 85 and 86 of the present invention at a concentration of 10,000 ppm, was added to Hoagland hydroponic solution (Hoagland and Arnon, California Agricultural Experiment Station 1950 Circular 347 pp. 34) of ¼-fold concentration at a volume ratio of 1/10,000. In this manner, hydroponic solutions containing one of the compounds 1, 3, 11, 12, 14, 15, 17, 21, 28, 30, 33, 34, 35, 36, 37, 38, 40, 41, 43, 44, 45, 46, 47, 49, 50, 51, 52, 53, 54, 55, 56, 61, 62, 63, 65, 67, 68, 69, 70, 73, 74, 75, 76, 77, 80, 82, 83, 85 and 86 of the present invention at 1 ppm were prepared respectively. As an untreated control plot, a hydroponic solution obtained by adding DMSO to Hoagland hydroponic solution of ¼-fold concentration at a volume ratio of 1/10,000 was used. Rice seeds were soaked in a 1% aqueous sodium hypochlorite solution for 10 minutes, then soaked in a 70% ethanol solution for surface sterilization, and then washed with distilled water. The sterilized seeds were soaked in a hydroponic solution containing the test compound described above at 1 ppm and incubated in a dark place for 3 days at 28° C. to perform treatment for hastening germination.
as §7, with “1” for “10”
The nursery plants of rice obtained after cultivation were measured in terms of the length of seminal root by using WinRHIZO system (manufactured by Regent Instruments Inc). For each test plot, an average of the measured values of the seminal root of 4 or 5 individuals was determined.

Structure (SMILES)	relative leaf area (% of untreated control) at 1 ppm (Nicotiana benthamiana [1])	change in vivo at 10 ppm [2]	relative leaf area at 10 ppm (Nicotiana benthamiana [3])	change in vivo at 1 ppm [4]
COC(=O)c1oc2ccccc2c1NC(=O)c1ccccc1 [Compound 59]	≥ 5%	–	–	–
COC(=O)c1oc2ccccc2c1NS(C)(=O)=O [Compound 60]	≥ 5%	> 5%	≥ 5%	–
COC(=O)c1oc2ccc(C(F)(F)F)cc2c1NC(=O)c1ccccc1 [Compound 66]	≥ 5%	–	–	–
COC(=O)c1oc2ccccc2c1N(C)C [Compound 58]	≥ 5%	–	≥ 5%	–
COC(=O)c1nc2cc(C(F)(F)F)ccc2[nH]1 [Compound 21, methyl 5-(trifluoromethyl)benzimidazole-2-carboxylate]	≥ 5%	–	–	> 5%
